BindingDB's records for doi:10.1021/jm00058a003 (Upjohn Laboratories, 1993)

Target: 5-HT1A receptor (Bos taurus)
Experiment: In vitro binding affinity towards [3H]8-OH-DPAT-labeled 5-hydroxytryptamine 1A receptor sites in bovine hippocampus.

Compound | Ki [nM]
C=CC[C@@H]1c2ccccc2CC[C@H]1NCCC (relative stereo) [(trans)-(1-Allyl-1,2,3,4-tetrahydro-naphthalen-2-yl)-propyl-amine] | > 1000
C=CC[C@@H]1c2cccc(OC)c2CC[C@H]1NCCC (relative stereo) [(trans)-(1-Allyl-5-methoxy-1,2,3,4-tetrahydro-naphthalen-2-yl)-propyl-amine] | > 1000
C=CC[C@@H]1c2c(cccc2OC)CC[C@H]1NCC1CC1 (relative stereo) [(trans)-(1-Allyl-8-methoxy-1,2,3,4-tetrahydro-naphthalen-2-yl)-cyclopropylmethyl-amine] | 4.1
C=CC[C@@H]1c2c(cccc2OC)CC[C@H]1NCCC (relative stereo) [(trans)-(1-Allyl-8-methoxy-1,2,3,4-tetrahydro-naphthalen-2-yl)-propyl-amine] | 19
CCCN[C@@H]1CCc2cccc(OC)c2[C@H]1CC1CC1 (relative stereo) [(trans)-(1-Cyclopropylmethyl-8-methoxy-1,2,3,4-tetrahydro-naphthalen-2-yl)-propyl-amine] | 9.3
C=CCN[C@@H]1CCc2ccccc2[C@H]1CC=C (relative stereo) [(trans)-Allyl-(1-allyl-1,2,3,4-tetrahydro-naphthalen-2-yl)-amine] | > 1000
C=CCN[C@@H]1CCc2cccc(OC)c2[C@H]1CC1CC1 (relative stereo) [(trans)-Allyl-(1-cyclopropylmethyl-8-methoxy-1,2,3,4-tetrahydro-naphthalen-2-yl)-amine] | 15
C=CCN[C@@H]1CCc2cccc(O)c2[C@@H]1CC=C [8-Allyl-7-allylamino-5,6,7,8-tetrahydro-naphthalen-1-ol] | 1
C=CC[C@H]1c2c(O)cccc2CC[C@H]1NCCC [8-Allyl-7-propylamino-5,6,7,8-tetrahydro-naphthalen-1-ol] | 0.5
C=CC[C@H]1c2ccccc2CC[C@H]1NCCC [(1-Allyl-1,2,3,4-tetrahydro-naphthalen-2-yl)-propyl-amine] | 174
C=CC[C@H]1c2cccc(OC)c2CC[C@H]1NCCC [(1-Allyl-5-methoxy-1,2,3,4-tetrahydro-naphthalen-2-yl)-propyl-amine] | > 1000
C=CC[C@H]1c2c(cccc2OC)CC[C@H]1NCC1CC1 [(1-Allyl-8-methoxy-1,2,3,4-tetrahydro-naphthalen-2-yl)-cyclopropylmethyl-amine] | 2.9
C=CC[C@H]1c2c(cccc2OC)CC[C@H]1N(CCC)CCC [(1-Allyl-8-methoxy-1,2,3,4-tetrahydro-naphthalen-2-yl)-dipropyl-amine] | 6.3
C=CC[C@H]1c2c(cccc2OC)CC[C@H]1NCCC [(1-Allyl-8-methoxy-1,2,3,4-tetrahydro-naphthalen-2-yl)-propyl-amine] | 1.8
CCCN[C@@H]1CCc2cccc(OC)c2[C@@H]1CC1CC1 [(1-Cyclopropylmethyl-8-methoxy-1,2,3,4-tetrahydro-naphthalen-2-yl)-propyl-amine] | 15
CCCN[C@@H]1CCc2cccc(OC)c2[C@@H]1CCC [(8-Methoxy-1-propyl-1,2,3,4-tetrahydro-naphthalen-2-yl)-propyl-amine] | 11
CCCN[C@@H]1CCc2cccc(OC)c2[C@@H]1CO [(8-Methoxy-2-propylamino-1,2,3,4-tetrahydro-naphthalen-1-yl)-methanol] | 5.4
C=CCN[C@@H]1CCc2ccccc2[C@@H]1CC=C [Allyl-(1-allyl-1,2,3,4-tetrahydro-naphthalen-2-yl)-amine] | 152
C=CCN[C@@H]1CCc2cccc(OC)c2[C@@H]1CC1CC1 [Allyl-(1-cyclopropylmethyl-8-methoxy-1,2,3,4-tetrahydro-naphthalen-2-yl)-amine] | 9.4
CCCN(C)[C@@H]1CCc2cccc(OC)c2[C@@H]1CO [[8-Methoxy-2-(methyl-propyl-amino)-1,2,3,4-tetrahydro-naphthalen-1-yl]-methanol] | 5
